In ChEMBL document CHEMBL5154800, “Identification of N, C-capped di- and tripeptides as selective immunoproteasome inhibitors” (Eur J Med Chem, 2022):
Non-standard residues stand in square brackets, D forms with d. Residues, ends and D or L forms follow the SMILES beside them. *: point of attachment. 4Amb = NCc1ccc(C(=O)O)cc1; NHtBu = CC(C)(C)N*; ClAc = O=C(CCl)*; βAla = NCCC(=O)O

What was measured:
[1] = Selectivity ratio of IC50 for inhibition of 20S proteasome beta 5c subunit (unknown origin) to IC50 for inhibition of 20S proteasome subunit beta-5i
[2] = target: T1, Proteasome subunit beta type-8 (Homo sapiens, UniProt P28062); test: Inhibition of 20S proteasome subunit beta-5i (unknown origin) using Ac-ANW-AMC as substrate and measured after 30 mins
T1 sequence (P28062 whole entry): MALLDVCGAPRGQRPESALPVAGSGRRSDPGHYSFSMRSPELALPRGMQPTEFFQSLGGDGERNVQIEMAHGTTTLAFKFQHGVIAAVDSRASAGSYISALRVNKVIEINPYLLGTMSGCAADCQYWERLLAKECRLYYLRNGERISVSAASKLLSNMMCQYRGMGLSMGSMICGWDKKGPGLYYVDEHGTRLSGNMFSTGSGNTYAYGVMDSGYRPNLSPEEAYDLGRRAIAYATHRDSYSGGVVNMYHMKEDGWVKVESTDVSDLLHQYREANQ

HT-29 = test: Antiproliferative activity against human HT-29 cells assessed as growth inhibition at 0.2 uM measured after 72 hrs by MTT assay; format: functional; settings: read-out: GI
DOHH-2 = test: Antiproliferative activity against human DOHH-2 cells assessed as growth inhibition at 0.2 uM measured after 72 hrs by MTT assay; format: functional; settings: read-out: GI
HCT-116 = test: Antiproliferative activity against human HCT-116 cells assessed as growth inhibition at 0.2 uM measured after 72 hrs by MTT assay; format: functional; settings: read-out: GI
MCF7 = test: Antiproliferative activity against human MCF7 cells assessed as growth inhibition at 0.2 uM measured after 72 hrs by MTT assay; format: functional; settings: read-out: GI
Pfeiffer = test: Antiproliferative activity against human Pfeiffer cells assessed as growth inhibition at 0.2 uM measured after 72 hrs by MTT assay; format: functional; settings: read-out: GI
[3] = target: T2, Proteasome Macropain subunit MB1 (Homo sapiens, UniProt P28074); test: Inhibition of 20S proteasome subunit beta-5c (unknown origin) using Ac-WLA-AMC as substrate and measured after 30 mins
T2 sequence (P28074 whole entry): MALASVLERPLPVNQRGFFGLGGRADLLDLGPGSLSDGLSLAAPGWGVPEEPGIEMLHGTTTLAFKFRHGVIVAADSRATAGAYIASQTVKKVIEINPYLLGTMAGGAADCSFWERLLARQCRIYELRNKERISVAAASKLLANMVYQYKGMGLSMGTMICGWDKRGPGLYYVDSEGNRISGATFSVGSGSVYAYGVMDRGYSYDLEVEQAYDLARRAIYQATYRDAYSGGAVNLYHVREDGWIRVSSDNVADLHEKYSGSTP

SMILES	Ratio IC50 [1]	IC50 [2]	IC50 [3]	inhibition of growth at 0.2 µM (HT-29)	inhibition of growth at 0.2 µM (DOHH-2)	inhibition of growth at 0.2 µM (HCT-116)	inhibition of growth at 0.2 µM (MCF7)	inhibition of growth at 0.2 µM (Pfeiffer)
CC(C)(C)NC(=O)CC[C@H](NC(=O)CCNC(=O)CCl)C(=O)N[C@@H](Cc1ccccc1)C(=O)NCc1cccc(C(F)(F)F)c1	22	125 nM	–	–	–	–	–	–
Cc1ccc(CNC(=O)[C@H](Cc2ccccc2)NC(=O)[C@H](CCC(=O)NC(C)(C)C)NC(=O)CCNC(=O)CCl)cc1	12	–	–	< 20%	36%	49%	< 20%	< 20%
Cc1ccc(CNC(=O)CNC(=O)[C@H](CCC(=O)NC(C)(C)C)NC(=O)CCNC(=O)CCl)cc1	6	626 nM	3790 nM	–	–	–	–	–
Cc1ccc(CNC(=O)[C@H](Cc2ccccc2)NC(=O)[C@H](CCC(=O)N2CCCC2)NC(=O)[C@H](CNC(=O)CCl)NC(=O)CN2CCOCC2)cc1	10	–	3570 nM	–	–	–	–	–
CC(=O)N[C@@H](CNC(=O)CCl)C(=O)N[C@@H](CCC(=O)NC(C)(C)C)C(=O)N[C@@H](Cc1ccccc1)C(=O)NCc1ccc(C)cc1	3	–	–	–	–	–	–	–
Cc1ccc(CNC(=O)CNC(=O)[C@H](CCC(=O)NC(C)(C)C)NC(=O)[C@H](CNC(=O)CCl)NC(=O)CN2CCOCC2)cc1	41	94.4 nM	3850 nM	–	–	–	–	–
CC(C)(C)NC(=O)CC[C@H](NC(=O)CCNC(=O)CCl)C(=O)N[C@@H](Cc1ccccc1)C(=O)NCc1ccc2ccccc2c1	15	–	–	< 20%	< 20%	39%	< 20%	25%
Cc1ccc(CNC(=O)[C@H](Cc2ccccc2)NC(=O)[C@H](CC(=O)NCC2CCCO2)NC(=O)[C@H](CNC(=O)CCl)NC(=O)CN2CCOCC2)cc1 (stereo partly drawn)	3	138 nM	430 nM	–	–	–	–	–
CC[C@H](NC(=O)[C@H](CCC(=O)NC(C)(C)C)NC(=O)CCNC(=O)CCl)C(=O)NCc1ccc(C)cc1	3	61.6 nM	204 nM	–	–	–	–	–
COc1cccc(CNC(=O)[C@H](Cc2ccccc2)NC(=O)[C@H](CCC(=O)NC(C)(C)C)NC(=O)CCNC(=O)CCl)c1	11	–	–	–	–	–	–	–
Cc1ccc(CNC(=O)[C@H](Cc2ccccc2)NC(=O)[C@H](CCC(=O)NC(C)(C)C)NC(=O)CCNC(=O)/C(C#N)=C/C2CC2)cc1	7	9.64 nM	–	< 20%	25%	26%	22%	< 20%
CC(C)(C)NC(=O)CC[C@H](NC(=O)CCNC(=O)CCl)C(=O)N[C@@H](Cc1ccccc1)C(=O)NCc1ccc(C#N)cc1C(F)(F)F	–	> 5000 nM	–	–	–	–	–	–
COC(=O)C1CCN(C(=O)C[C@H](NC(=O)[C@H](CNC(=O)CCl)NC(=O)CN2CCOCC2)C(=O)N[C@@H](Cc2ccccc2)C(=O)NCc2ccc(C)cc2)CC1	> 16	644 nM	> 644 nM	–	–	–	–	–
Cc1ccc(/C=C(\C#N)C(=O)NCCC(=O)N[C@@H](CCC(=O)NC(C)(C)C)C(=O)N[C@@H](Cc2ccccc2)C(=O)NCc2ccc(C)cc2)cc1	9	–	–	< 20%	< 20%	41%	< 20%	29%
CC(C)c1ccc(CNC(=O)[C@H](Cc2ccccc2)NC(=O)[C@H](CCC(=O)NC(C)(C)C)NC(=O)CCNC(=O)CCl)cc1	12	–	–	–	–	–	–	–
CC(C)(C)NC(=O)CC[C@H](NC(=O)CCNC(=O)CCl)C(=O)N[C@@H](Cc1ccccc1)C(=O)NCc1ccc(OC(F)(F)F)cc1	> 14	–	> 5000 nM	–	–	–	–	–
Cc1ccc(CNC(=O)[C@H](Cc2ccccc2)NC(=O)[C@H](CCC(=O)NC(C)(C)C)NC(=O)[C@H](CNC(=O)CCl)NC(=O)CN2CCOCC2)cc1	14	–	–	< 20%	< 20%	29%	< 20%	32%
Cc1ccc(CNC(=O)[C@H](Cc2ccccc2)NC(=O)[C@H](CCC(=O)NC(C)(C)C)NC(=O)[C@H](CNC(=O)CCl)NC(=O)C(=O)c2c[nH]c3ccccc23)cc1	2	–	–	< 20%	< 20%	44%	< 20%	32%
CC(C)(C)NC(=O)CC[C@H](NC(=O)CCNC(=O)CCl)C(=O)N[C@@H](Cc1ccccc1)C(=O)NCc1ccc(S(C)(=O)=O)cc1	–	> 5000 nM	–	–	–	–	–	–
COC(=O)c1ccc(CNC(=O)[C@H](Cc2ccccc2)NC(=O)[C@H](CCC(=O)NC(C)(C)C)NC(=O)CCNC(=O)CCl)cc1 ({ClAc-βAla}-Glu(NHtBu)-Phe-[4Amb]-OMe)	6	–	–	–	–	–	–	–
Cc1ncsc1-c1ccc(CNC(=O)[C@H](Cc2ccccc2)NC(=O)[C@H](CCC(=O)NC(C)(C)C)NC(=O)CCNC(=O)CCl)cc1	> 11	–	> 5000 nM	–	–	–	–	–
Cc1[nH]c2ccc(CNC(=O)[C@H](Cc3ccccc3)NC(=O)[C@H](CCC(=O)NC(C)(C)C)NC(=O)CCNC(=O)CCl)cc2c1C	27	36.5 nM	–	–	–	–	–	–
Cc1ccc(CNC(=O)[C@H](Cc2ccccc2F)NC(=O)[C@H](CCC(=O)NC(C)(C)C)NC(=O)CCNC(=O)CCl)cc1	4	–	81.5 nM	–	–	–	–	–
Cc1ccc(CNC(=O)[C@H](Cc2ccccc2)NC(=O)[C@H](CCC(=O)NC(C)(C)C)NC(=O)CCNC(=O)/C(C#N)=C/c2nccs2)cc1	4	–	–	< 20%	22%	< 20%	< 20%	22%

Further lines, with some results ahead:

Ratio IC50 [1]	IC50 [2]	IC50 [3]	SMILES	inhibition of growth at 0.2 µM (HT-29)	inhibition of growth at 0.2 µM (DOHH-2)	inhibition of growth at 0.2 µM (HCT-116)	inhibition of growth at 0.2 µM (MCF7)	inhibition of growth at 0.2 µM (Pfeiffer)
52	–	–	CC(C)(C)NC(=O)CC[C@H](NC(=O)CCNC(=O)CC#N)C(=O)N[C@@H](Cc1ccc2ccccc2c1)C(=O)NCc1cccc2ccccc12	–	–	–	–	–
3	–	–	Cn1ncc2cc(CNC(=O)[C@H](Cc3ccccc3)NC(=O)[C@H](CCC(=O)NC(C)(C)C)NC(=O)CCNC(=O)CCl)ccc21	–	–	–	–	–
6	–	–	Cc1ccc(CNC(=O)[C@H](Cc2ccccc2)NC(=O)[C@H](CCC(=O)NC(C)(C)C)NC(=O)[C@H](CNC(=O)CCl)NC(=O)OC(C)(C)C)cc1	11%	< 20%	46%	< 20%	29%
2	43.9 nM	79.4 nM	COC[C@H](NC(=O)[C@H](CCC(=O)NC(C)(C)C)NC(=O)CCNC(=O)CCl)C(=O)NCc1ccc(C)cc1	–	–	–	–	–
2	7.33 nM	13.7 nM	Cc1ccc(CNC(=O)[C@H](Cc2c[nH]c3ccccc23)NC(=O)[C@H](CCC(=O)NC(C)(C)C)NC(=O)CCNC(=O)CCl)cc1	< 20%	< 20%	29%	< 20%	28%
> 19	–	> 5000 nM	CC(C)(C)NC(=O)CC[C@H](NC(=O)CCNC(=O)CCl)C(=O)N[C@@H](Cc1ccccc1)C(=O)NCc1ccccc1C(F)(F)F	–	–	–	–	–
2	–	–	COc1ccc(/C=C(\C#N)C(=O)NCCC(=O)N[C@@H](CCC(=O)NC(C)(C)C)C(=O)N[C@@H](Cc2ccccc2)C(=O)NCc2ccc(C)cc2)cc1	< 20%	< 20%	32%	< 20%	28%
4	–	–	Cc1ccc(CNC(=O)[C@H](Cc2ccccc2)NC(=O)[C@H](CCC(=O)NC(C)(C)C)NC(=O)CCNC(=O)/C(C#N)=C/C(C)C)cc1	< 20%	27%	30%	< 20%	27%
22	–	–	Cc1ccc(CNC(=O)[C@H](Cc2ccccc2)NC(=O)[C@H](CCC(=O)NC(C)(C)C)NC(=O)CCNC(=O)/C(C#N)=C/c2ccc(Cl)cc2)cc1	< 20%	< 20%	28%	43%	34%
5	–	–	CC(C)(C)NC(=O)CC[C@H](NC(=O)CCNC(=O)CCl)C(=O)N[C@@H](Cc1ccccc1)C(=O)NCc1ccc(N2CCOCC2)cc1	–	–	–	–	–
20	6.51 nM	–	Cc1ccc(CNC(=O)[C@H](Cc2cccc(F)c2)NC(=O)[C@H](CCC(=O)NC(C)(C)C)NC(=O)CCNC(=O)CCl)cc1	< 20%	< 20%	35%	< 20%	29%
